The text below walks through data of patent publication US20130090494A1, “TETRAKIS[BIS(DIHYDROXYPHOSPHORYL)METHYL]CALIX[4]ARENE OR ITS SODIUM SALT THEREOF AS FIBRIN POLYMERIZATION INHIBITORS” (priority 2010, published 2013).

Series [1] deals with T1, fibrin polymerization in the thrombin-fibrinogen reaction (Homo sapiens, UniProt P02671+P02675+P02679).
T1 construct: The fibrinogen was prepared by sodium sulfate precipitation from human plasma; from tissue; host or cells: human blood plasma
T1 sequence (P02671 20-644 isoform P02671-2 limits assumed): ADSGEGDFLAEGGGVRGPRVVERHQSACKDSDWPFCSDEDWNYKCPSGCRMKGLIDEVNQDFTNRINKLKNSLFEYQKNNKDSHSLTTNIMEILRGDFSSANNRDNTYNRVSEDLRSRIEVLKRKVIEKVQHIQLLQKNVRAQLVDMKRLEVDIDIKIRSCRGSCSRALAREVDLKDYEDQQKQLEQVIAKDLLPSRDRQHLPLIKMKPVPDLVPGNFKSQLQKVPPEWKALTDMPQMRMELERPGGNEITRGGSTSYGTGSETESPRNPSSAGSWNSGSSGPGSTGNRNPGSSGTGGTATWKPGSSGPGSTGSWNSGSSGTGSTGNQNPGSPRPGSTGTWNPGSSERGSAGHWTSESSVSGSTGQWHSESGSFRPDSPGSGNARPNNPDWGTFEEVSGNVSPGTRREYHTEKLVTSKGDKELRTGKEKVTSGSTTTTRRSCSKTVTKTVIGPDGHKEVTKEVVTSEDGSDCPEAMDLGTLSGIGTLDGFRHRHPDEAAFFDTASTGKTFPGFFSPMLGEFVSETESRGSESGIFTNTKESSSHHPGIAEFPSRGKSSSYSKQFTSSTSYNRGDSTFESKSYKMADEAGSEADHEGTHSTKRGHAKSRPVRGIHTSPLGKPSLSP
T1 sequence (P02675 45-491 limits assumed): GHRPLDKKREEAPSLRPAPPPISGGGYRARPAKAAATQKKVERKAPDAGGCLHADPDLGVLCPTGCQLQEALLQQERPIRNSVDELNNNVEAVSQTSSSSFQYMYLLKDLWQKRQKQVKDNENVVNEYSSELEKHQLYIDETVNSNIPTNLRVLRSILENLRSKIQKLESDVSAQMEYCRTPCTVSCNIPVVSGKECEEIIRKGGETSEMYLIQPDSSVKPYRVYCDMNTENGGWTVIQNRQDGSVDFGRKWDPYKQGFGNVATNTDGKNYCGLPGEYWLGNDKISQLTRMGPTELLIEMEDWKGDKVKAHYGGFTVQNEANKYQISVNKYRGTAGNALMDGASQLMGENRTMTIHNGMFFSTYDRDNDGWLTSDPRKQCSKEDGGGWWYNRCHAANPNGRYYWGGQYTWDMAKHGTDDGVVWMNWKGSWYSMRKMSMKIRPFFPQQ
T1 sequence (P02679 27-437 isoform P02679-2 limits assumed): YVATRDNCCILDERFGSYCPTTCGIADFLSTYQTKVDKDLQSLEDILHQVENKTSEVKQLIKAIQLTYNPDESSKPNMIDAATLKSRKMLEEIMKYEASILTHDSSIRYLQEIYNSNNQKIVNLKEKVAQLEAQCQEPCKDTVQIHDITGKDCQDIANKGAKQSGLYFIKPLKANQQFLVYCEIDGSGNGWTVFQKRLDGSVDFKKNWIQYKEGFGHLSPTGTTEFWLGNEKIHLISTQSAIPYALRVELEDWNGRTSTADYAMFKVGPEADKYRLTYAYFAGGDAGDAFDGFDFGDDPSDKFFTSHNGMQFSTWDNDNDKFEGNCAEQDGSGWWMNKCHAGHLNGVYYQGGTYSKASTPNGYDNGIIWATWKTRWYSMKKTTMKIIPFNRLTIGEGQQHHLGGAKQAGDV
As to the kind of experiment: Turbidity analysis of fibrin polymerization in the thrombin-fibrinogen reaction. Format: biochemical. On the procedure: (§1) The fibrin polymerization by the action of thrombin on fibrinogen consists of two reactions: 1) thrombin-catalyzed conversion of fibrinogen to fibrin and 2) polymerization of the fibrin monomer to form three-dimensional network, which is the framework of thrombus.
(§2) The turbidity analysis of desAABB fibrin polymerization and of fibrin polymerization in the fibrinogen+thrombin reaction in the present and the absent of declared calixarenes C-192 and C-145
(§3) The fibrinogen was prepared by sodium sulfate precipitation from human plasma. DesAABB fibrin monomer was prepared in 0.02 M acetic acid was prepared during reaction fibrinogen+thrombin [10]. Polymerization of fibrin desAA and desAABB was studied in the polymerization medium containing at a low concentration thrombin at pH 5.3 [7]. In the experience of the system fibrinogen+thrombin in polymerization medium to add declared calixarene C-192 at a concentration of 0.5 mM.

Series [2] deals with T2, desAABB fibrin monomer polymerization (Homo sapiens, UniProt P02671+P02675+P02679).
T2 construct: DesAABB fibrin monomer was prepared in 0.02 M acetic acid was prepared during reaction fibrinogen+thrombin; The fibrinogen was prepared by sodium sulfate precipitation from human plasma; from tissue; host or cells: human blood plasma; fibrinogen converted with thrombin
T2 sequence (P02671 36-866 limits assumed): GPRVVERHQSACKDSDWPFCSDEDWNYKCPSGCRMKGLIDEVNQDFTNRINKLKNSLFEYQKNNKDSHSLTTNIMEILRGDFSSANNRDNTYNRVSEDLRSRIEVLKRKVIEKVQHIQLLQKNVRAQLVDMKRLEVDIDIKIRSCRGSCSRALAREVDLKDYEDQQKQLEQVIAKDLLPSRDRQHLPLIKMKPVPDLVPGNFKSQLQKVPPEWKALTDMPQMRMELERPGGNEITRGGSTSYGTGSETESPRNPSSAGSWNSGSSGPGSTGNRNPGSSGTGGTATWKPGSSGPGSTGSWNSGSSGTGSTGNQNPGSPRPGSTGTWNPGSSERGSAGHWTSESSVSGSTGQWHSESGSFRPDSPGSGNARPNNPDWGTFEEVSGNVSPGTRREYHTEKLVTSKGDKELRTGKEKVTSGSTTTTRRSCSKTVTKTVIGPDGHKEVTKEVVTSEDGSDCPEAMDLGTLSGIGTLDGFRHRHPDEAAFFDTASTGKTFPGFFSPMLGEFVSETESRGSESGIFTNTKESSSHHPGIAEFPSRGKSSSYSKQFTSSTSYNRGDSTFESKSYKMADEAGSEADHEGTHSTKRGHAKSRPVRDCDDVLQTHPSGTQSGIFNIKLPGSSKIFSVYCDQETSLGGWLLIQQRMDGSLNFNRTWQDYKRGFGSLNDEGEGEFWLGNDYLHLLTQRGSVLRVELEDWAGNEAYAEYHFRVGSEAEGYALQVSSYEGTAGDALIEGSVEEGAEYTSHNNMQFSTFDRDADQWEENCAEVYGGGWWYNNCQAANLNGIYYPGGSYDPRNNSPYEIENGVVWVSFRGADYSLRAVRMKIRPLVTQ
T2 sequence (P02675 45-491 limits assumed): T1 sequence (P02675 45-491 limits assumed)
T2 sequence (P02679 27-453): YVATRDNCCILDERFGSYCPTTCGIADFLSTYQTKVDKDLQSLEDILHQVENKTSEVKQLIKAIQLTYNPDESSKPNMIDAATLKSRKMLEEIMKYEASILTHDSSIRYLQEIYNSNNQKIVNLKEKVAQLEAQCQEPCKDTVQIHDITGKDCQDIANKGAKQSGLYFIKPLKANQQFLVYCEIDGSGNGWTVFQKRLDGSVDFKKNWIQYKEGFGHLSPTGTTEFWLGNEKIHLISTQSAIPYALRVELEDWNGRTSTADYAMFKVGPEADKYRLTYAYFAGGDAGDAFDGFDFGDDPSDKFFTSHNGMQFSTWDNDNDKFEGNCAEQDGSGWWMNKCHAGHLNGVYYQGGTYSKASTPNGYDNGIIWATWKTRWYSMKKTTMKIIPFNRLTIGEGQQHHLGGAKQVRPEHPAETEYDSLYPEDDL
The series can be described thus: Turbidity analysis of desAABB fibrin monomer polymerization. Format: biochemical. The conditions noted are these: for final (maximum) turbidity of fibrin clot (Δh) / lag-time (τ) / maximum rate of fibrin polymerization (Vmax): desAABB fibrin polymerization medium, 0.5 μM, FIG. 2. The method, then: as §1, §2, §3
The declared calixarene C-192 and C-145 was added on the desAABB fibrin polymerization medium at a concentration of 0.5 μM.

The target of series [3] is T3, fibrin protofibril formation (Homo sapiens, UniProt P02671+P02675+P02679).
T3 construct: The fibrinogen was prepared by sodium sulfate precipitation from human plasma; from tissue; host or cells: human blood plasma
T3 sequence (P02671 20-644 isoform P02671-2 limits assumed): T1 sequence (P02671 20-644 isoform P02671-2 limits assumed)
T3 sequence (P02675 45-491 limits assumed): T1 sequence (P02675 45-491 limits assumed)
T3 sequence (P02679 27-437 isoform P02679-2 limits assumed): T1 sequence (P02679 27-437 isoform P02679-2 limits assumed)
As to the kind of experiment: Transmission electron microscopy of fibrin formed in the thrombin-fibrinogen reaction. Format: biochemical. Particulars: 50000 magnification, FIG. 4. The text has this:
The study of desAABB fibrin polymerization in the thrombin-fibrinogen reaction by transmission electron microscopy in the present and the absent of declared calixarenes C-192 and C-145
The analysis of the electron micrographs of the fibrin formed in the fibrinogen+thrombin reaction at different time intervals after the polymerization process beginning in the absence of calixarene C-192 (FIG. 4, A and B) and in the presence of calixarene C-192 (FIG. 4, C, D).
The samples of polymerizing fibrin produced in the thrombin-fibrinogen reaction in the absence or the presence of calixarene C-192 were taken out of the reaction medium at various times, placed on a carbon-coated grid for 2 min and then stained with 1% (w/v) uranyl acetate for 1 min. Transmission electron microscopy was performed with an H-600 electron microscope (Hitachi, Tokyo, Japan). Electron micrographs were obtained at −50 000 magnification.

Series [4] has as its system human blood plasma coagulation (outer pathway). The series can be described thus: Prothrombin time (PT) of human blood plasma. On the procedure:
(§4) The measuring of prothrombin time (PT) and activated partial thromboplastin time (APTT) for coagulation of human plasma in the presence of calixarene C-192.
(§5) The effects of calixarene C-192 on the coagulation of human blood plasma were studied using a coagulometer (CT 2410 ‘Solar’, Belarus).
Using coagulometer measured the prothrombin ratio, which is calculated using the formula: […]
where: PR—prothrombin ratio; PTe—prothrombin time in the investigating blood plasma; PTc—prothrombin time in the control blood plasma.
The prothrombin time were calculated using the method. The dissolved calixarene C-192 at concentration of 50 μM was added to cuvette in the experience. The prothrombin ratio calculating by formula (I) equals 1.6.

The test system of series [5] is human blood plasma coagulation (internal pathway). The series can be described thus: Activated partial thromboplastin time (APTT) of human blood plasma.
Description: as §4, §5
The activated partial thromboplastin time calculated by the method. In the APTT-test comparing the formation of the fibrin clot in control samples: pure blood plasma specimens and blood plasma, in which the solute of calixarene C-192 at concentration of 50 μM. The prothrombin ratio Calculated by formula (1) equals 5.4.

Series [6] is described as follows: Acute toxicity in healthy adult mice. The conditions noted are these: mouse, in vivo, oral; healthy adult mice, perorally.
The next series relates to mice. As to the kind of experiment: Acute toxicity in healthy adult mice. The conditions noted are these: mouse, in vivo.
The target in the next series is T4, fibrin polymerization (Homo sapiens, UniProt P02671+P02675+P02679).
T4 sequence (P02671 20-644 isoform P02671-2 limits assumed): T1 sequence (P02671 20-644 isoform P02671-2 limits assumed)
T4 sequence (P02675 45-491 limits assumed): T1 sequence (P02675 45-491 limits assumed)
T4 sequence (P02679 27-437 isoform P02679-2 limits assumed): T1 sequence (P02679 27-437 isoform P02679-2 limits assumed)
The series can be described thus: Turbidity analysis of fibrin polymerization (system not specified). Format: biochemical. Particulars: applicant's own experiments. An excerpt: Furthermore, because of electro neutrality of the declared calixarene-145 molecule, it may be more suitable for injection to a living organism as an inhibitor of fibrin polymerization and the process of blood clotting, as well.

Setting [7] is: fibrinogen+thrombin system, C-192 at 0.5 mM, FIG. 1.
[8] abbreviates: normal human blood plasma, FIG. 3.

Molecules are shown by their SMILES. Entries after “also recorded” stand apart in the source; their conditions may differ. Where a name gives a salt, the structure may show the parent alone.

Regarding `O=P(O)(O)C(c1cc2c(O)c(c1)Cc1cc(C(P(=O)(O)O)P(=O)(O)O)cc(c1O)Cc1cc(C(P(=O)(O)O)P(=O)(O)O)cc(c1O)Cc1cc(C(P(=O)(O)O)P(=O)(O)O)cc(c1O)C2)P(=O)(O)O` [calixarene C-192, 5,11,17,23-tetrakis[bis(dihydroxyphosphoryl)methyl]calix[4]arene], in series [1] (setting [7]), the “final turbidity of fibrin clot (Δh)” value was “decreased; also recorded: reduced”, the “lag-time (τ)” value was “increases; also recorded: significantly increased” and the “maximum rate of fibrin polymerization (Vmax)” value (“maximum rate” for short) is recorded as “significantly decreased; also recorded: greatly reduced”. Further, inhibition in series [1] (turbidity analysis, thrombin-fibrinogen reaction) was half-maximal at 500 nM (IC50). Also, in series [2] (listed as C-192), the “final (maximum) turbidity of fibrin clot (Δh)” value is listed as “decreased”, the “lag-time (τ)” value is given as “increased significantly” and the “maximum rate” value is “decreased”. For the same molecule, the IC50 in series [2] (fibrin monomer polymerization) stood at 1000 nM. In series [3], the “effect on fibrin polymerization stage seen by electron microscopy” value is given as “inhibits the first stage of fibrin polymerization protofibril formation; also recorded: inhibits the first stage of fibrin polymerization protofibril building”. The “concentration that doubles the prothrombin time (PT)” value in series [4] (setting [8]) is 7.0·10^−5 M. The “prothrombin ratio (PR=PTe/PTc)” value in series [4] (prothrombin time, human plasma, 50 μM) is recorded as 1.6. Further, the “prothrombin ratio calculated by formula (1) in the APTT-test” value in series [5] (APTT-test, human plasma, 50 μM) is given as 5.4. Further, in series [5] (setting [8]), the “concentration that doubles the APTT” value is reported as 1.7·10^−5 M. In addition, in series [6], the LD50 worked out at 780 mg/kg. Further, the toxicity class result in the series with mice was “median toxic compound”.

On to `O=P(O)(O)C(c1cc2c(O)c(c1)Cc1cc(C(P(=O)(O)O)P(=O)(O)O)cc(c1O)Cc1cc(C(P(=O)(O)O)P(=O)(O)O)cc(c1O)Cc1cc(C(P(=O)(O)O)P(=O)(O)O)cc(c1O)C2)P(=O)(O)O` [calixarene C-145, octasodium salt of 5,11,17,23-tetrakis [bis](dihydroxyphosphoryl)methyl calix[4]arene], for which, in series [2] (listed as C-145), the “final (maximum) turbidity of fibrin clot (Δh)” value is on record as “significantly decreased”, the “lag-time (τ)” value is on record as “increases; also recorded: increased significantly” and the “maximum rate” value was “significantly decreased”. This molecule showed a concentration for half-maximal inhibition (IC50) against fibrin polymerization of 2500 nM.

As a reminder, the IC50 is the concentration that gives 50% inhibition. By LD50 is commonly meant the dose expected to kill half of the subjects tested. A higher LD50 goes with a less toxic substance.
